Assay results taken from ChEMBL document CHEMBL5137058, “Therapeutic Strategies to Target the Androgen Receptor” (J Med Chem, 2022).

Experiments:
[1] = In vivo antagonist activity at Androgen receptor assessed as reduction in wax ester in golden hamster ear model; format: functional, Cricetinae; set-up: concentration or dose not given beside the values
LNCaP = test: Antiproliferative activity against human LNCaP cells; format: functional, cell-based
Androgen receptor [2] = biological target: T1, Androgen receptor (Homo sapiens, UniProt P10275); test: Binding affinity to human Androgen receptor
T1 sequence (P10275 whole entry): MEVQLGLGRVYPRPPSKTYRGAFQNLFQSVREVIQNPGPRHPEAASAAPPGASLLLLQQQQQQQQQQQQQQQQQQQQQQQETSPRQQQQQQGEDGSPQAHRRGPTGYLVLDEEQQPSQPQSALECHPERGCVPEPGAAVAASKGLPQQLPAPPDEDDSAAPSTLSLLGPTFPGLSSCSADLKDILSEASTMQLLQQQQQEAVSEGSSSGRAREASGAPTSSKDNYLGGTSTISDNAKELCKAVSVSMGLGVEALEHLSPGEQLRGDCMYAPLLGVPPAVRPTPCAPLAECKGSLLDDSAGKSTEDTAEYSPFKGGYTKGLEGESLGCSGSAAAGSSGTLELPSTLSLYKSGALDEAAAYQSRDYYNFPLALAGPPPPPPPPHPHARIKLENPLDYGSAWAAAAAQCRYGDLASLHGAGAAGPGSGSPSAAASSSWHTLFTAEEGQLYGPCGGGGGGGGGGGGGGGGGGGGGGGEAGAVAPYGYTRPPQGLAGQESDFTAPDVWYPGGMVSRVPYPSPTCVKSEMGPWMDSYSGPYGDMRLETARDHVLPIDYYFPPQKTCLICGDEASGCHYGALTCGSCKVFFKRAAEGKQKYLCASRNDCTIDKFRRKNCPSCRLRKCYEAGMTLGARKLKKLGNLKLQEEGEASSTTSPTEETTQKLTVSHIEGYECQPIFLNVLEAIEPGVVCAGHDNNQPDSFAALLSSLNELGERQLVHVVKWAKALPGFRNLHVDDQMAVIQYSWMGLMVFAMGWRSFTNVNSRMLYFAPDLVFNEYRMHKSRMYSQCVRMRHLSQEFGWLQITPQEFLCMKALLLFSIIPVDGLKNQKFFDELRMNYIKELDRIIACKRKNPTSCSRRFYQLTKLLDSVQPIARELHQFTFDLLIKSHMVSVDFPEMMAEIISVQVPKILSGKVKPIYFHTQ

Androgen receptor [3] = biological target: T1, Androgen receptor; test: Agonist activity at human Androgen receptor
Androgen receptor [4] = biological target: T1, Androgen receptor; test: Displacement of [3H]methyltrienolone from Androgen receptor expressed in human MDA-MB-453 cells; format: cell-based
Androgen receptor [5] = biological target: T1, Androgen receptor; test: Agonist activity to human Androgen receptor in African green monkey COS-7 cells measured by luciferase reporter assay; format: cell-based
[6] = biological target: T2, Androgen receptor (Homo sapiens) (UniProt P10275); test: Agonist activity at androgen receptor (unknown origin) at 1 uM relative to control; details: filed as agonist
T2 sequence (whole entry): T1 sequence (P10275 whole entry)

Androgen receptor [7] = biological target: T1, Androgen receptor; test: Antagonist activity at Androgen receptor in human MDA-kb2 cells; format: cell-based
Androgen receptor [8] = biological target: T1, Androgen receptor; test: Partial agonist activity at human Androgen receptor
Androgen receptor [9] = biological target: T1, Androgen receptor; test: Displacement of [3H]DHT from Androgen receptor expressed in human MDA-MB-453 cells; format: cell-based
Androgen receptor [10] = biological target: T1, Androgen receptor; test: Antagonist activity at Androgen receptor in human MDA-MB-453 cells measured by SEAP reporter gene assay; format: cell-based
Androgen receptor [11] = biological target: T1, Androgen receptor; test: Antagonist activity at Androgen receptor in human LNCaP cells measured by SEAP reporter gene assay; format: cell-based
[12] = Oral bioavailability in mouse; format: ADME, organism-based; details: in vivo
[13] = biological target: T3, Protein cereblon/Androgen receptor/Cullin-4A (Homo sapiens, UniProt P10275+Q96SW2+Q13619); test: Protac activity at CRBN/Cullin 4A/Androgen receptor in human VCaP cells assessed as Androgen receptor degradation; format: cell-based
[14] = biological target: T3, Protein cereblon/Androgen receptor/Cullin-4A; test: Protac activity at CRBN/Cullin 4A/Androgen receptor in human LNCaP cells assessed as Androgen receptor degradation; format: cell-based
Androgen receptor [15] = biological target: T1, Androgen receptor; test: Binding affinity to Androgen receptor (unknown origin); details: read-out: IC50
[16] = In vivo agonist activity at Androgen receptor in male rat assessed as increase in levator ani muscle weight at 2 mg/kg, po administered for 5 days; format: functional; details: time 5 day
[17] = In vivo agonist activity at Androgen receptor in male rat assessed as increase in prostate weight at 2 mg/kg, po administered for 5 days; format: functional; details: time 5 day
Androgen receptor [18] = biological target: Androgen receptor (Homo sapiens, UniProt P10275, T878A); test: Binding affinity to bicalutamide-resistant Androgen receptor T878A mutant (unknown origin)
SC-3 = test: Antiproliferative activity against mouse SC-3 cells; format: functional, cell-based
Androgen receptor [19] = biological target: T1, Androgen receptor; test: Agonist activity at human Androgen receptor expressed in human MDA-MB-453 cells cotransfected with MMTV-Luc assessed as transactivation modulation of AR measured by luciferase reporter assay; format: cell-based
[20] = biological target: T2, Androgen receptor (Homo sapiens); test: Agonist activity at human Androgen receptor expressed in human MDA-MB-453 cells cotransfected with MMTV-Luc assessed as transactivation modulation of AR measured by luciferase reporter assay relative to control; format: cell-based; details: filed as agonist
[21] = biological target: GABA-A receptor; anion channel; test: Binding affinity to GABA A receptor (unknown origin); format: protein-complex assay, Homo sapiens
Androgen receptor [22] = biological target: Androgen receptor (Rattus norvegicus, UniProt P15207); test: Binding affinity to rat Androgen receptor in African green monkey COS-7 cells measured by whole-cell binding assay; format: cell-based
[23] = biological target: T2, Androgen receptor (Homo sapiens); test: Induction of degradation of Androgen receptor in human LNCaP cells; format: cell-based

T3 sequence (Q96SW2 whole entry, one chain of several): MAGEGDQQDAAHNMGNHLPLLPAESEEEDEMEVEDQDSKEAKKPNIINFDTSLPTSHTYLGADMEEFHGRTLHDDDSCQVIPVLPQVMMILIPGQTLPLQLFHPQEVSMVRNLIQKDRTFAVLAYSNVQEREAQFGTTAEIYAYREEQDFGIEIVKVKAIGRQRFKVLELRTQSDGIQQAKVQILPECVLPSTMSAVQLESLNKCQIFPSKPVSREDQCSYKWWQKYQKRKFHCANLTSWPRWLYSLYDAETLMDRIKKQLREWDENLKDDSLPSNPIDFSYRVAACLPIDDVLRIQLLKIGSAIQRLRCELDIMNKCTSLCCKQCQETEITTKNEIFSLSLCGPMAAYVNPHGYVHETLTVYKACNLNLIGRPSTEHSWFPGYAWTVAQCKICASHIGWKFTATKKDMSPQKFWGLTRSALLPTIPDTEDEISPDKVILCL
T3 sequence (Q13619 whole entry, one chain of several): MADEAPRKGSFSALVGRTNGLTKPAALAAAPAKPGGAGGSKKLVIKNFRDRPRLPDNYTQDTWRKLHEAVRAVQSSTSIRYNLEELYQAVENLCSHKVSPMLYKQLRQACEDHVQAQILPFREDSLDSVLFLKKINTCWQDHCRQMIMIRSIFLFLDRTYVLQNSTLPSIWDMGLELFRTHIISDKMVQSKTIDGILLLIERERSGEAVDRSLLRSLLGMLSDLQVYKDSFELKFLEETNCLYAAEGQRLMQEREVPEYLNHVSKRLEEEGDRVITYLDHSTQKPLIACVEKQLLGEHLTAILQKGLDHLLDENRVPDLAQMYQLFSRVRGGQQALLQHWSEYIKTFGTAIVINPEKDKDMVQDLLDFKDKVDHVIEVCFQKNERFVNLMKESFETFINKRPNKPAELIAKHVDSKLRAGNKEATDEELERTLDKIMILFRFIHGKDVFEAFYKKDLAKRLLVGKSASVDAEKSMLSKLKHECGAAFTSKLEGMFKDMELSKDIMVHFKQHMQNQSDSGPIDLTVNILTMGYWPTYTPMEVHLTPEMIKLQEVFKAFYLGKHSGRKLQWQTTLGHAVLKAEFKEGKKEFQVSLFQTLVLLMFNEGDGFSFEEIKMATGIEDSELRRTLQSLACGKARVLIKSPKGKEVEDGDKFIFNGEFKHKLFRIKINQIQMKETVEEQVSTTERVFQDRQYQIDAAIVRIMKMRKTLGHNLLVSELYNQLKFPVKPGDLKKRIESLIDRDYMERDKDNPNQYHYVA
Androgen receptor (Rattus norvegicus, UniProt P15207), sequence (P15207 whole entry S389L): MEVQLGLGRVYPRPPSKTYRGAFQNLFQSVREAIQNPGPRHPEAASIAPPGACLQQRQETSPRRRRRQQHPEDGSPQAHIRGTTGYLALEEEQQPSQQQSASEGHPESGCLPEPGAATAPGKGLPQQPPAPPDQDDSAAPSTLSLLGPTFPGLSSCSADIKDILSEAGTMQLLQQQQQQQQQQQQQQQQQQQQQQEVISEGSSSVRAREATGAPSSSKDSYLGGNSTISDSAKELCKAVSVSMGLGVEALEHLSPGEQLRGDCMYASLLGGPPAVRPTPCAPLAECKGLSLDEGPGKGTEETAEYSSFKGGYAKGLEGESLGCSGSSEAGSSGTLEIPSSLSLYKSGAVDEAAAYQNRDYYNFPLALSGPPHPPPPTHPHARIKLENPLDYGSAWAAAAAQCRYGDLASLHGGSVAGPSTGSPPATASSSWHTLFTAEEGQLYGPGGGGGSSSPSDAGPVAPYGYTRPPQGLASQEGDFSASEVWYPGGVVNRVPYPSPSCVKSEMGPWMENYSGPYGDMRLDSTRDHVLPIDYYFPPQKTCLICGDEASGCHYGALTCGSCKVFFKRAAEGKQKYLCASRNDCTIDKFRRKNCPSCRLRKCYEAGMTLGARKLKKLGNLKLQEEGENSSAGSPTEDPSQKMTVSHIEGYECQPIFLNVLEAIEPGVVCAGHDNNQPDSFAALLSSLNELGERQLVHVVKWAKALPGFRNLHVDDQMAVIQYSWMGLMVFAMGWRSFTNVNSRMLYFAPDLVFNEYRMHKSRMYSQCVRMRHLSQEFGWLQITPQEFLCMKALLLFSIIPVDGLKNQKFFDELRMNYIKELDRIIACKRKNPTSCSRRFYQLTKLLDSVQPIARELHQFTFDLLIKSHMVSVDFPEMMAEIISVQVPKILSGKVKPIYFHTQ
Androgen receptor (Homo sapiens, UniProt P10275, T878A), sequence (P10275 whole entry T878A): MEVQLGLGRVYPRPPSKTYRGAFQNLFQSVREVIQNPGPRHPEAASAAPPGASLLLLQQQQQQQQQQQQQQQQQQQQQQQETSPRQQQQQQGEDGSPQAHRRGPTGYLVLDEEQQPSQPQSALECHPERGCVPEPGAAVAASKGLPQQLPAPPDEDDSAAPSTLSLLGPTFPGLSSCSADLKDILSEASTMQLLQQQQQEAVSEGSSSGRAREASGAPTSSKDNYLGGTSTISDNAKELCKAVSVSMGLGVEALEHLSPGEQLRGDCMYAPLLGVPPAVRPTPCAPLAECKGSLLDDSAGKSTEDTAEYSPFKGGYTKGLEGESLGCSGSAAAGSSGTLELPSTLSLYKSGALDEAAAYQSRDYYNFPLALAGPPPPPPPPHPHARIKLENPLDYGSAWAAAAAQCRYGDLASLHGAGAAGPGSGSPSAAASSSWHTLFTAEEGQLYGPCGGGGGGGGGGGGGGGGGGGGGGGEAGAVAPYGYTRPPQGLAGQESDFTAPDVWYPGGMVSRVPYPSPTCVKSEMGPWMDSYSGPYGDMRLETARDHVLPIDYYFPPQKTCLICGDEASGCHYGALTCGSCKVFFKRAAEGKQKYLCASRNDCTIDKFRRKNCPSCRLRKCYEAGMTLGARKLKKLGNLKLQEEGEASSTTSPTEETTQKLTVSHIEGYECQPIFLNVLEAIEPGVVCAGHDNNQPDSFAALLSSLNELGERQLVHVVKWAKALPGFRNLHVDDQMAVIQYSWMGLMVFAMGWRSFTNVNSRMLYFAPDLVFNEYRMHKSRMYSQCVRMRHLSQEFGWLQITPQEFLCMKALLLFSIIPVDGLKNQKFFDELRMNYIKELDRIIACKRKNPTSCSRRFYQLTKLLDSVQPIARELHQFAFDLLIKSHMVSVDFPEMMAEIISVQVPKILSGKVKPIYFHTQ

Work on `Cc1ccccc1Sc1ccc(C#N)cc1Cl` yielded an Activity [1] greater than 80%.
`CC1(C)C(=O)N(c2ccc(C#N)c(Cl)c2)C(=S)N1CCCS(N)(=O)=O` gave an IC50 (LNCaP) of 410 nM.
With `CC(C)(C)OC(=O)c1cccc2oc(=O)c3c(ccc4[nH]c(=O)cc(C(F)(F)F)c43)c12` the Ki (Androgen receptor [2]) was 8.7 nM and the EC50 (Androgen receptor [3]) was 1.1 nM.
With `CN1C(=O)C(F)=C[C@]2(C)[C@H]3CC[C@]4(C)[C@@H](C(=O)NCc5nc6cccnc6[nH]5)CC[C@H]4[C@@H]3CC[C@@H]12` [MK-0773] the IC50 (Androgen receptor [4]) was 6.6 nM.
For `C[C@H]1[C@@H](O)CCN1c1ccc(C#N)c2ccccc12`, the IC50 (Androgen receptor [2]) was 2.4 nM and the EC50 (Androgen receptor [5]) was 0.32 nM.
With `CC1(C)CN(CCC#N)C(=O)[C@@H]1Oc1ccc(C#N)c(C(F)(F)F)c1` the Activity [6] was 89%.
Molecule `CC1(C)CN(Cc2ccccc2)C(=O)[C@@H]1Oc1ccc(C#N)c(C(F)(F)F)c1` has an Activity [1] of 78%.
`N#Cc1ccc(-c2ccccc2O)cc1C(F)(F)F` gave an IC50 (Androgen receptor [7]) of 0.2 nM and an Activity [1] of 86%.
For `C[C@@]1(c2ccc(O)cc2)NC(=O)N(c2ccc(C#N)c(C(F)(F)F)c2)C1=O`, the IC50 (Androgen receptor [8]) was 0.9 nM.
`CCCCc1ccc(OC(=O)N2C[C@@H]3C[C@H]2[C@@H]2C(=O)N(c4ccc([N+](=O)[O-])c5ccccc45)C(=O)N32)cc1` showed a Ki (Androgen receptor [9]) of 73 nM, an IC50 (Androgen receptor [10]) of 60 nM and an IC50 (Androgen receptor [11]) of 4750 nM.
`Cc1c(N2CC[C@](C)(O)[C@@H]2C)ccc(C#N)c1Cl` showed an IC50 (Androgen receptor [2]) of 1 nM and an EC50 (Androgen receptor [5]) of 0.29 nM.
With `CC1(C)[C@H](NC(=O)c2ccc(N3CCN(CC4CCN(c5ccc6c(c5)C(=O)N(C5CCC(=O)NC5=O)C6=O)CC4)CC3)cc2)C(C)(C)[C@H]1Oc1ccc(C#N)c(Cl)c1` (stereo partly specified) the bioavailability [12] was 67%, the DC50 [13] was 0.28 nM and the DC50 [14] was 8.3 nM.
With `N#Cc1ccc(O[C@@H]2CCCC[C@H]2C#N)cc1C(F)(F)F` the Activity [1] was 64%.
For `N#CCC(O)(c1nc2cc(Cl)c(Cl)cc2[nH]1)C(F)(F)F` (stereo unspecified), the IC50 (Androgen receptor [15]) was 2 nM.
Work on `Cc1c(/N=C2\N=C(N)N3N=C(C(F)(F)F)C[C@@]23C)ccc(C#N)c1C(F)(F)F` yielded an Activity [16] of 91% and an Activity [17] of 36%.
Work on `Cn1cc(N(Cc2ccccc2)c2ccc([N+](=O)[O-])cc2)cc1C(=O)N1CCCC1` yielded a Ki (Androgen receptor [18]) of 6 nM and an IC50 (SC-3) of 440 nM.
With `C[C@@]12O[C@@](C)(C[C@H]1O)[C@@H]1C(=O)N(c3ccc(C#N)c(I)c3)C(=O)[C@@H]12` the Ki (Androgen receptor [9]) was 2.4 nM and the IC50 (Androgen receptor [10]) was 19 nM.
`CN1C(=O)C(F)=C[C@]2(C)[C@H]3CC[C@]4(C)[C@@H](O)/C(=C/c5cncnc5)C[C@H]4[C@@H]3CC[C@@H]12` showed an IC50 (Androgen receptor [4]) of 59 nM, an EC50 (Androgen receptor [19]) of 17 nM and an Activity [20] of 141%.
Work on `CNC(=O)c1ccc(N2C(=S)N(c3ccc(C#N)c(C(F)(F)F)c3)C(=O)C2(C)C)cc1F` [ENZALUTAMIDE] yielded an IC50 (LNCaP) of 36 nM and an IC50 [21] of 3000 nM.
Molecule `Cc1ccccc1Oc1ccc(C#N)c(Cl)c1` has an Activity [1] greater than 87%.
`OC1(C(F)(F)F)CCCC2c3cc(Cl)c(Cl)cc3NC21` (stereo unspecified) gave an IC50 (Androgen receptor [22]) of 27 nM.
For `CC1(C)C(=O)N(c2ccc(C#N)c(C(F)(F)F)c2)C(=S)N1CCCC(=O)NCCOCCOC(=O)CC12CC3CC(CC(C3)C1)C2`, the Activity [23] was greater than 50%.
`O=c1[nH]nc(Cc2c(Cl)cccc2Cl)c2ccccc12` gave an IC50 (LNCaP) of 560 nM and an IC50 (SC-3) of 180 nM.
For `CC(C)N1C[C@@]2(C)O[C@](C)(C1)[C@H]1C(=O)N(c3ccc(C#N)c(C(F)(F)F)c3)C(=O)[C@H]12`, the Ki (Androgen receptor [9]) was 14 nM, the IC50 (Androgen receptor [10]) was 32 nM and the IC50 (Androgen receptor [11]) was 125 nM.
